Experimental data: ChEMBL document CHEMBL1201862, “PubChem BioAssay data set” (2004)
Where a name gives a salt, the structure may show the parent alone.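 Briefly, cells in 96-well plates were exposed to five compound concentrations for 48 h, and endpoints were estimated by linear interpolation. The concentration for 50% growth inhibition is given as GI50.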 Calls of active or inactive are those of the source. Cut-off read from the data, not from the text of the source: active = GI50 up to about 1.1 µM and inactive = higher.

How the values were obtained:
Assay in all cases: DTP human tumour cell line panel, 48 h
BT-549 = test system: BT-549
EKVX = test system: EKVX
HCC 2998 = test system: HCC 2998
HL-60 = test system: HL-60
HT-29 = test system: HT-29
Hs-578T = test system: Hs-578T
K562 = test system: K562
KM12 = test system: KM12
MDA-MB-435 = test system: MDA-MB-435
MOLT-4 = test system: MOLT-4
NCI-H522 = test system: NCI-H522
OVCAR-4 = test system: OVCAR-4
OVCAR-5 = test system: OVCAR-5
RPMI-8226 = test system: RPMI-8226
SF-539 = test system: SF-539
SK-MEL-2 = test system: SK-MEL-2
SW-620 = test system: SW-620
T47D = test system: T47D
TK-10 = test system: TK-10
UACC-257 = test system: UACC-257

Compound | GI50 (BT-549) | GI50 (EKVX) | GI50 (HCC 2998) | GI50 (HL-60) | GI50 (HT-29) | GI50 (Hs-578T) | GI50 (K562) | GI50 (KM12) | GI50 (MDA-MB-435) | GI50 (MOLT-4) | GI50 (NCI-H522) | GI50 (OVCAR-4) | GI50 (OVCAR-5) | GI50 (RPMI-8226) | GI50 (SF-539) | GI50 (SK-MEL-2) | GI50 (SW-620) | GI50 (T47D) | GI50 (TK-10) | GI50 (UACC-257)
O=S(=O)(O)c1cc(S(=O)(=O)O)c2c(/N=N/c3cccc4ccccc34)c(O)ccc2c1 | > 100 µM (inactive) | > 100 µM (inactive) | > 100 µM (inactive) | > 100 µM (inactive) | > 100 µM (inactive) | > 100 µM (inactive) | > 100 µM (inactive) | > 100 µM (inactive) | > 100 µM (inactive) | > 100 µM (inactive) | > 100 µM (inactive) | > 100 µM (inactive) | > 100 µM (inactive) | > 100 µM (inactive) | > 100 µM (inactive) | > 100 µM (inactive) | > 100 µM (inactive) | > 100 µM (inactive) | > 100 µM (inactive) | > 100 µM (inactive)
NC1=CN(CCCO)C2=N/C(=C\c3ccccc3)C(=O)N12 | > 100 µM (inactive) | 69.5 µM (inactive) | > 100 µM (inactive) | 42.9 µM (inactive) | > 100 µM (inactive) | 86.3 µM (inactive) | > 100 µM (inactive) | > 100 µM (inactive) | > 100 µM (inactive) | > 100 µM (inactive) | 80.4 µM (inactive) | > 100 µM (inactive) | > 100 µM (inactive) | 83.4 µM (inactive) | > 100 µM (inactive) | > 100 µM (inactive) | > 100 µM (inactive) | > 100 µM (inactive) | > 100 µM (inactive) | > 100 µM (inactive)
Nc1ccc(-c2nc3cc(F)ccc3s2)cc1I | 13.5 µM (inactive) | 9.46 µM (inactive) | < 0.01 µM (active) | > 100 µM (inactive) | 0.889 µM (active) | 25.2 µM (inactive) | > 77.3 µM (inactive) | 14.7 µM (inactive) | > 80.9 µM (inactive) | > 100 µM (inactive) | 13.6 µM (inactive) | 0.0782 µM (active) | 0.274 µM (active) | > 100 µM (inactive) | 15.6 µM (inactive) | 20.2 µM (inactive) | 27.5 µM (inactive) | 0.0658 µM (active) | 0.0351 µM (active) | 49.3 µM (inactive)
Cc1cc(C)n(CC(Cn2nc(C)cc2C)=C(/C(Cl)=C(/Cl)Nc2ccc([N+](=O)[O-])cc2)[N+](=O)[O-])n1 | 3.33 µM (inactive) | 3.85 µM (inactive) | 3.52 µM (inactive) | 1.54 µM (inactive) | 3.28 µM (inactive) | 5.31 µM (inactive) | 1.65 µM (inactive) | 1.81 µM (inactive) | 1.84 µM (inactive) | 1.79 µM (inactive) | 2.09 µM (inactive) | 1.02 µM (active) | 7.78 µM (inactive) | 1.93 µM (inactive) | 3.52 µM (inactive) | 3.05 µM (inactive) | 2.42 µM (inactive) | 3.33 µM (inactive) | 3.78 µM (inactive) | 3.4 µM (inactive)
CC(C)(C)N1CSC(=S)N(Cc2ccco2)C1 | 2.79 µM (inactive) | 14.4 µM (inactive) | 4.02 µM (inactive) | 1.53 µM (inactive) | 3.27 µM (inactive) | 4.78 µM (inactive) | 1.85 µM (inactive) | 2.7 µM (inactive) | 1.76 µM (inactive) | 1.45 µM (inactive) | 3.27 µM (inactive) | 12.1 µM (inactive) | 3.1 µM (inactive) | 0.177 µM (active) | 0.708 µM (active) | 3.55 µM (inactive) | 1.21 µM (inactive) | 5.64 µM (inactive) | 3.04 µM (inactive) | 10.3 µM (inactive)
OC(CNc1ccccn1)c1ccccc1 (stereo not given) [PHENYRAMIDOL HYDROCHLORIDE] | > 100 µM (inactive) | > 100 µM (inactive) | > 100 µM (inactive) | > 100 µM (inactive) | > 100 µM (inactive) | > 100 µM (inactive) | 85.5 µM (inactive) | > 100 µM (inactive) | > 100 µM (inactive) | > 100 µM (inactive) | > 100 µM (inactive) | > 100 µM (inactive) | > 100 µM (inactive) | 90.2 µM (inactive) | > 100 µM (inactive) | > 100 µM (inactive) | > 100 µM (inactive) | > 100 µM (inactive) | > 100 µM (inactive) | > 100 µM (inactive)
Cc1cc2nc(O)c(C(C)C(=O)c3ccc(Cl)cc3)nc2cc1C (stereo not given) | 54.5 µM (inactive) | 14.2 µM (inactive) | 13.5 µM (inactive) | 21.2 µM (inactive) | 22.1 µM (inactive) | 54.6 µM (inactive) | 40.6 µM (inactive) | 29.8 µM (inactive) | 20.1 µM (inactive) | 27.7 µM (inactive) | 31.6 µM (inactive) | 31.6 µM (inactive) | 56.1 µM (inactive) | 43.2 µM (inactive) | 23.4 µM (inactive) | > 100 µM (inactive) | 28.8 µM (inactive) | 32.3 µM (inactive) | 27 µM (inactive) | 16.6 µM (inactive)
CN(C)CCS/C(=N\c1ccccc1)N1C=COC=C1 | > 100 µM (inactive) | 86.1 µM (inactive) | 24.7 µM (inactive) | > 77.6 µM (inactive) | 43.7 µM (inactive) | 89.1 µM (inactive) | > 67.8 µM (inactive) | 57.4 µM (inactive) | 18.9 µM (inactive) | > 84.7 µM (inactive) | 17.4 µM (inactive) | > 44.6 µM (inactive) | > 66.5 µM (inactive) | 61.7 µM (inactive) | 29.2 µM (inactive) | 17.3 µM (inactive) | 21.4 µM (inactive) | 15.3 µM (inactive) | 47.5 µM (inactive) | 18.2 µM (inactive)
CCc1cn(C2CC(CO)C(CO)S2)c(=O)[nH]c1=O (stereo not given) | > 100 µM (inactive) | > 100 µM (inactive) | > 100 µM (inactive) | > 100 µM (inactive) | > 100 µM (inactive) | > 100 µM (inactive) | > 100 µM (inactive) | > 100 µM (inactive) | > 100 µM (inactive) | > 100 µM (inactive) | > 100 µM (inactive) | > 100 µM (inactive) | > 100 µM (inactive) | > 100 µM (inactive) | > 100 µM (inactive) | > 100 µM (inactive) | > 100 µM (inactive) | > 100 µM (inactive) | > 100 µM (inactive) | > 100 µM (inactive)
